Results: patent publication US8853219B2, “Compounds and compositions for cognition-enhancement, methods of making, and methods of treating” (NeuroSolis, Inc., priority 2010, dated 2014)
Positions count from the first letter of the chain named.

How the values were obtained:
CD-I mice = assay: Apomorphine induced climbing model of psychosis; assay type: in vivo, mouse
Description: As described in Costall et. al. European Journal of Pharmacology 1978, 50, 39. individual CD-I mice, 1-2 months old, were placed in a cylindrical wire mesh cage (13.2 cm high×13.2 cm diameter) constructed of steel wire 1 mm thick spaced at 1.2 cm^2. Cylinders were placed in a standard OptiMICE mouse cage (29×32×9×29 cm wide and 14 cm high) with adequate wood chip bedding provided. Observations of climbing (defined as 3 or more paws off the ground) were carried out every 5 minutes at a duration of 1 minute for 30 minutes. Animals were injected subcutaneously under isoflurane anesthesia with test compounds, reference compounds, which included clozapine, haloperidol, olanzapine and xanomeline, or PBS as a control. This was followed 5 minutes later by 2 mg/kg apomorphine hydrochloride. All drugs were dissolved in PBS or a mixture of (by volume) 96% PBS and 4% hydroxypropyl-beta-cyclodextrin, and dosed at a rate of 5 ml per kilogram of body weight. Following injections, animals were replaced in the mesh cages and observed for climbing (defined as 3 or more paws off the ground) every 5 minutes for a duration of 1 minute for 60 minutes after dosing.

A-beta = A-beta in hippocampal microdialysate of Tg-2576 transgenic mice; assay type: in vivo, mouse; conditions: single dose
From the text: These mice have high concentrations of A-beta in their brain tissue, thought to be the cause of neuron death in Alzheimer's disease, and accumulate amyloid plaques, recapitulating one of the hallmark pathological features of Alzheimer's disease.

[1] = molecular target: T1, human muscarinic M1 receptors (Homo sapiens, UniProt P11229); assay: Stimulation of inositol phosphate production in A9L cells, human M1 (IPOne TR-FRET); assay type: cell-based
T1 construct: host or cells: A9L cells
T1 sequence (P11229 1-460): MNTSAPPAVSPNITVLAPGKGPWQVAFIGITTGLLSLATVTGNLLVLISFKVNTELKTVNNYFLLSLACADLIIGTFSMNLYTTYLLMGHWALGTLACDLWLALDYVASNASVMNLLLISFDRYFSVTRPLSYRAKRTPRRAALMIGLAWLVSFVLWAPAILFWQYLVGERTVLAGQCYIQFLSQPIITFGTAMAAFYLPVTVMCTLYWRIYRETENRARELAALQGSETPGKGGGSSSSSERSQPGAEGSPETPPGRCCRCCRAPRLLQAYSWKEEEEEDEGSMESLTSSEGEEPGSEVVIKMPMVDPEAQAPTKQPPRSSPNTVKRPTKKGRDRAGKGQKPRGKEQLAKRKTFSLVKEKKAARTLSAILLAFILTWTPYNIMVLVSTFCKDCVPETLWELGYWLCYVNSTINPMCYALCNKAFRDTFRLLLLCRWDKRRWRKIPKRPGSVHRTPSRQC
Description: (§1) Muscarinic M1 and M3 agonist activity was evaluated by measuring the stimulation of inositol phosphate (IP) production in the presence of lithium chloride from A9L cells transfected with expression plasmids containing human muscarinic M1 and M3 receptors, respectively. The cell lines were a gift from Professor W Messer, and the methods were as described in Tejada F R et al. J. Med. Chem. 2006; 49: 7518-31 except that the assay was scaled down to run in 384 well plates, and IP was measured in the cell lysates using the non-isotopic IPOne TR-FRET assay (CIS-BIO, Inc).
(§2) Cells were grown to 90% confluence in 384 well hi-base plates (Greiner Bio-One), compounds were added at suitable concentrations in growth medium containing 10 mM LiCL, buffered with an extra 10 mM HEPES (pH7.4), and incubated for 60 minutes at 37° C. Cells were lysed and assayed for IP following the manufacturer's instructions.
(§3) The value for a full agonist is 100%, while partial agonists give values below 100%.

[2] = system: pooled male human liver microsomes; assay: Metabolism by human liver microsomes; assay type: in vitro ADME; conditions: 6 hours incubation
Description: Compounds were incubated with pooled male human liver microsomes (BD Biosciences, #452172) and an NADP-regenerating system in a phosphate buffer (pH 7.4) for a total of 6 hours. Aliquots were removed every 2 hours, and 1% formic acid was added to halt the reaction. Samples were centrifuged, filtered through 0.2 micron spinfilter and the amount of each compound in the supernatants was quantitated using LC/MS/MS.

Long Evans Hooded rats = assay: In vivo measurement of salivation; parameters: species or system rat; conditions: anesthetized normal rats, dose-dependent between about 0.1 mg/kg and 1 mg/kg
Description: Suitable doses of test compounds or drug substances were administered using standard techniques to Long Evans Hooded rats weighing 225 to 350 grams, or CD-1 mice weighing 30 to 50 grams, which had been anesthetized using 2-3.5%% of isoflurane in oxygen. The animals were placed slightly head-down on an inclined, heated ramp. Rectal temperature was monitored using a thermocouple and the temperature of the heating pad was adjusted manually to maintain normal body temperature. Saliva was collected from the mouth by absorption onto pre-weighed slips of filter paper. The filter paper was changed periodically and the amount of saliva was measured by weighing the filter paper slips.

[3] = molecular target: T2, human muscarinic M3 receptors (Homo sapiens, UniProt P20309); assay: Stimulation of inositol phosphate production in A9L cells, human M3 (IPOne TR-FRET); assay type: cell-based
T2 construct: host or cells: A9L cells
Description: as §1, §2, §3

rat M1 receptors = molecular target: T3, rat M1 receptors (Rattus norvegicus, UniProt P08482); assay: PI turnover (inositol phosphate production) in M1-CHO cells; assay type: cell-based; conditions: for Muscarinic agonist activity by PI turnover: cell lines expressing M1 and M3 subtypes
T3 construct: host or cells: Chinese Hamster Ovary cells (M1-CHO)
T3 sequence (P08482 1-460): T1 sequence (P11229 1-460) with A5V, T254S, P309S, R320K, A337G, I413V
Description: (§4) The medium was changed to 70 μL/well of inositol-free DMEM containing 2 mM glutamine, 10% FBS and 10 μCi/ml of [3H]-inositol (PE:cat #NET114A250UC), incubated overnight as above, then 100 μL of a solution of the test compound in HBSS containing 10 mM LiCl and 20 mM HEPES, pH 7.4 was added, incubation was continued for 60 min under the above conditions, and the test was stopped by removing the test compound and replacing with 100 μL of 50 mM formic acid in water at 4° C.

rats = assay: Muscarinic effects in vivo (salivary flow) in rats dosed orally; parameters: species or system rat
rat M3 receptors = molecular target: T4, rat M3 receptors (Rattus norvegicus, UniProt P08483); assay: PI turnover (inositol phosphate production) in M3-CHO cells; assay type: cell-based; conditions: mean Smax relative to mean Smax for carbachol (100)
T4 construct: host or cells: Chinese Hamster Ovary cells (M3-CHO)
Description: as §4

[4] = Blood and brain concentrations (rats) after oral gavage; assay type: in vivo, rat
Description: Long-Evans Hooded rats (Charles River: male, 250-350 g) were dosed with solutions of test compounds in PBS by oral gavage. At the desired time after dosing, the animals were anesthetized with isoflurane, and then euthanized by cervical dislocation. Blood was obtained by cardiac puncture, transferred to a 1.5 mL microcentrifuge tube containing 15U Heparin, and the plasma recovered after centrifugation. Brains were dissected, weighed, immediately chilled to 4° C., and homogenized using a PowerGen 125 homogenizer in five volumes of ice-cold 2% formic acid. Proteins were precipitated from plasma and brain homogenate with two and five volumes respectively of ice-cold 2% formic acid and clarified by centrifugation. The supernatant was ultra-filtered by centrifugation through a 3K MWCO spin column (Pall Life Sciences), following the manufacturer's instructions. The concentration of compound in the ultra-filtrate was subjected to reverse-phase liquid chromatography using a 150×2.1 mm Agilent C8 reverse-phase column on a Shimadzu Prominence LC, eluting the compounds with a gradient of 2% to 50% of acetonitrile+0.1% formic acid for compound MI-50,382, or an isocratic flow of 2% acetonitrile+0.1% formic acid for the rest of the compounds listed. The concentration of the compound in the column effluent was measured using an Applied Biosystems API-3200 triple quadrupole mass spectrometer equipped with an electrospray sample injection system. The counts of the characteristic parent and product ions of each test compound were converted to concentration units by comparison with a standard calibration curve.

[5] = Metabolites in serum and urine of dosed rats; assay type: in vivo; conditions: rat serum/plasma or urine
Description: Oxadiazoles disclosed herein as well as other oxadiazoles were investigated to determine the formation of metabolites. Animals were dosed, blood taken, serum prepared, serum proteins precipitated and ultrafiltrates prepared as described in Example 6. In separate experiments, urine was collected from rats for 16-24 hours after dosing, using standard metabolic cages. The urine container and collected urine were maintained at 4° C. Urine was lyophilized, taken back into water. The ultrafiltrate was prepared by adding formic acid to a final concentration of 1% to the urine samples, then filtered through a 0.2 um nylon membrane. The ultrafiltrate was subjected to LC-MS analysis. Instead of measuring the product ions in Q3, manual Q1 scans of the liquid chromatograph were undertaken, seeking parent ions of potential metabolites of the compounds. The criteria for identifying metabolites were as follows: (1) the ion should be present in the sera or urines of dosed rats, but not in sera or urines from non-dosed rats (2) the ion should be identifiable as a metabolic derivative of the dosed compound (e.g. loss of a functional chemical moiety, addition of a hydroxyl group or a glucuronic acid moiety, etc). Metabolites were determined not to be present if no compound meeting the above criteria could be detected in serum or urine.

T4 sequence (P08483 whole entry): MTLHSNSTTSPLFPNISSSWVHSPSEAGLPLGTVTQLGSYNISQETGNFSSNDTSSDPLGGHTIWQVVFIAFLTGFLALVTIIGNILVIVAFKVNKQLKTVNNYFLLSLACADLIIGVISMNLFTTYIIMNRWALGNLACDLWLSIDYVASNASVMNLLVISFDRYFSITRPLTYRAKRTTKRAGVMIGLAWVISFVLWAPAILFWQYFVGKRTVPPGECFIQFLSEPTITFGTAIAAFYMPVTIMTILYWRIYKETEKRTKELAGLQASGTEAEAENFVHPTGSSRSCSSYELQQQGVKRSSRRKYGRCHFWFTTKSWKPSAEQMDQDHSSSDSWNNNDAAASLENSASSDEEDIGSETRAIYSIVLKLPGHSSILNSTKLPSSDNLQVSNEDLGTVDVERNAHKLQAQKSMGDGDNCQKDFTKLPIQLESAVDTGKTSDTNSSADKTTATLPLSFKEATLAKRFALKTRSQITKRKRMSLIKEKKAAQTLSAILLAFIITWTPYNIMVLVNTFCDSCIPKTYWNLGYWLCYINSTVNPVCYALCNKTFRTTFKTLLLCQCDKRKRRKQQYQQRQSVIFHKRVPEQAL
T2 sequence (P20309 whole entry): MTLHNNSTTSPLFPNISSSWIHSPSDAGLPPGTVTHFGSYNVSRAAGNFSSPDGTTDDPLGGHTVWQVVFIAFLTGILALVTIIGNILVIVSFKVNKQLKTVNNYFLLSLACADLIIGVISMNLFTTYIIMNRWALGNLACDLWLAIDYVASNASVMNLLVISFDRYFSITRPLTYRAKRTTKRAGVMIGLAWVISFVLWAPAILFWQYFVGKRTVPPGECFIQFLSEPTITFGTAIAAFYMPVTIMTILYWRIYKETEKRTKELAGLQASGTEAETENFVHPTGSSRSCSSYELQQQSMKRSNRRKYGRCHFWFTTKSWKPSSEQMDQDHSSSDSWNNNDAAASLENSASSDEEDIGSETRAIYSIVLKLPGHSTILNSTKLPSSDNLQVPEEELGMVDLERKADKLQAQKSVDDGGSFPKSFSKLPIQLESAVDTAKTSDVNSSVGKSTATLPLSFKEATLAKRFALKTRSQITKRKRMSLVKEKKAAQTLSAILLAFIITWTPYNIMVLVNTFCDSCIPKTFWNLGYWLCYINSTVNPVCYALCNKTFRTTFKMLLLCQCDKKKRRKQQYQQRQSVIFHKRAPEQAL

SMILES	Climbing Mean (secs) (CD-I mice; Cmpd 3 + APO + N-Methyl Scopolamine 0.3 mg/kg)	Climbing Mean (secs) (CD-I mice; Cmpd 3 + APO + scopolamine 0.3 mg/kg)	Potency in inhibiting climbing relative to reference antipsychotic (CD-I mice; sc)	PAMPA units	Reduction of concentration of A-beta 1-40 in hippocampal microdialysate (A-beta)	Reduction of concentration of A-beta 1-42 in hippocampal microdialysate (A-beta)	huM1/A9L ED50 relative to CCh [1]	Metabolism in human liver microsomes [2]	Salivation (Long Evans Hooded rats)	huM3/A9L ED50 relative to CCh [3]	Functional selectivity for M1 subtype by PI turnover (rat M1 receptors; M1 versus M3 cell lines)	Muscarinic agonist activity by PI turnover (rat M1 receptors)	Salivary flow (rats; rats, dosed orally)	M3/CHO PI turnover Relative Mean Smax (rat M3 receptors)	M1/CHO PI turnover Relative Mean Smax (rat M1 receptors; mean Smax relative to mean Smax for carbachol (100))	Muscarinic agonist activity in vivo (rats; in vivo)	Plasma concentration relative to compound 1 ([4]; after oral dosing to rats)	Brain Cmax (10 mg/kg po) 1 hr MCD-386 = 1.00 ([4]; rat brain, 10 mg/kg po, 1 hr, relative to MCD-386)	Penetration into the brain ([4]; rats after oral dosing)	Presence of metabolites (10 mg/kg po) [5]
Cc1noc(C2CCCNC2)n1 (racemic) [compound 3, 3-Methyl-5-(piperidin-3-yl)-1,2,4-oxadiazole]	unaffected by N-methylscopolamine	inhibited by scopolamine	equipotent to haloperidol	2.56	approximately 40%	approximately 40%	+ (key: ++: potency > 10x CCh; +: potency 2-10x CCh; +/−: potency 0.5-2x CCh; −: potency < 0.5-0.1x CCh; −−: potency < 0.1x CCh; inactive: potency too low to determine)	metabolized significantly less in human liver microsomes than in rat liver microsomes	causes salivation	+/− (key: ++: potency > 10x CCh; +: potency 2-10x CCh; +/−: potency 0.5-2x CCh; −: potency < 0.5-0.1x CCh; −−: potency < 0.1x CCh; inactive: potency too low to determine)	–	–	–	–	–	–	–	–	–	–
Cl.[2H]C([2H])([2H])c1noc(C2CN=CNC2)n1 (centres unmarked) [compound 4, 3-(d3-methyl)-5-(1,4,5,6-tetrahydropyrimidin-5-yl)-1,2,4-oxadiazole hydrochloride]	–	–	–	–	–	–	–	–	–	–	not selective for the M1 subtype	near full-agonist	copious salivary flow, which was relatively short-lived	92.6	–	–	–	–	–	–
[2H]C([2H])([2H])c1noc(C2CCCNC2)n1 (centres unmarked) [compound 7, 3-D3-Methyl-5-(piperidin-3-yl)-1,2,4-oxadiazole]	–	–	–	–	–	–	–	metabolized significantly less in human liver microsomes than in rat liver microsomes	–	–	–	relatively low	–	0	2.7	demonstrated muscarinic agonist activity in vivo	approximately 2.4 times	2.16	penetrated into the brain	No metabolites were identified and No
